Source: patent publication US7238813B2, “Chemical compounds” (Smithkline Beecham Corporation, priority 2000, dated 2007)
Counter-ions that a name gives are not always drawn.

Experiments:
[1] = biological target: T1, GST-TIE2 (intracellular domains of human TIE2) (Homo sapiens, UniProt Q02763); test: TIE-2 enzyme assay (TIE2-E), LANCE method; format: biochemical; conditions: 80 uM ATP
T1 construct: made in house
How it was run: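 Baculovirus GST-TIE2 (human intracellular domain, aa 762–1104) preactivated 30 min at RT with 2 mM ATP, then reacted 30 min at RT with 1 μM D1-15 peptide, 80 uM ATP, 10 mM MgCl2, pH 7.4, 2.4% DMSO. EDTA-stopped; LANCE Eu-anti-pTyr/streptavidin-APC read-out. IC50 by nonlinear regression, reported as pIC50.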

[2] = biological target: T2, TIE2 intracellular domain/c-fms extracellular domain (TIE2/c-fms) chimeric protein expressing mouse 3T3 cells (Homo sapiens, UniProt Q02763); test: TIE-2 autophosphorylation assay (TIE2-C), ELISA; format: cell-based; conditions: TIE2/c-fms 3T3 cells, MCSF activation
T2 construct: a TIE2 intracellular domain/c-fms extracellular domain (TIE2/c-fms) chimeric protein; expressed in transfected cells; host or cells: mouse 3T3 cells
T2 sequence (Q02763 770-1124 limits assumed, change not shown): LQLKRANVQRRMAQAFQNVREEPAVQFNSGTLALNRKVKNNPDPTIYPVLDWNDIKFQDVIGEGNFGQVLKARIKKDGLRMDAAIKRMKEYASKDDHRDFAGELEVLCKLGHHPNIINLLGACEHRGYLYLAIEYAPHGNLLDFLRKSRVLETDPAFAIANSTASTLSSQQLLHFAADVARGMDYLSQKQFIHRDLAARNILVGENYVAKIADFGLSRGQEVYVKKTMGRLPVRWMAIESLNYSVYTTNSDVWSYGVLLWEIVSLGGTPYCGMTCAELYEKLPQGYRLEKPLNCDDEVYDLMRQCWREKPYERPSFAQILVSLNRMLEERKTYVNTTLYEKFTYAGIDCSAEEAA
Description: TIE-2 Autophosphorylation Assay (TIE2-C)
The TIE-2 autophosphorylation assay used an ELISA method and a TIE2 intracellular domain/c-fms extracellular domain (TIE2/c-fms) chimeric protein expressing mouse 3T3 cells. This assay measured the autophosphorylation level of TIE2 protein expressed in cells. The cells were cultured in high glucose DMEM (Sigma) containing 10% serum at 37° C. in a humidified 10% CO2, 90% air incubator. The test compound (diluted from a 10 mM stock in DMSO, final DMSO concentration was 0.1%) was incubated with TIE2/c-fms expressing cells for 1 hr in serum free DMEM in 96 well plates followed by the activation of TIE2/c-fms receptor using c-fms ligand, MCSF (macrophage colony stimulating factor). The culture media was removed by aspiration and the cells incubated for at least 30 mins on ice with lysis buffer containing 137 mM NaCl, 2 mM EDTA, 10% glycerol, […] sodium ortho vanadate and complete protease inhibitor cocktail (Roche) in 20 mM Tris-HCl (pH8.0). The cell extracts were transferred into Rat anti-c-fms antibody coated 96 well plates and incubated for 12 hrs at 4° C. The extracts were removed by aspiration and the plate was incubated with biotinylated anti-phosphotyrosine antibody, PT66 (Sigma) and then with HRP (Horseradish Peroxidase)-labeled streptavidin (PIERCE). The optical density at 450 nm derived from HRP catalyzed TMB was measured with an ARVO multilabel counter. (Wallac Berthold Japan). The percent inhibition of activity was calculated relative to blank control wells. The concentration of test compound that inhibits 50% of activity (IC50) was interpolated using nonlinear regression (Levernberg-Marquardt) and the equation, y=Vmax (1−x/(K+x))+Y2, where “K” was equal to the IC50. The IC50 values were converted to pIC50 values, i.e., −log IC50 in Molar concentration.

GST-VEGFR2 = biological target: T3, GST-VEGFR2 (Homo sapiens, UniProt P35968); test: VEGF-R2 enzyme assay (VEGF-E), LANCE method; format: biochemical; conditions: 75 μM ATP
T3 construct: GST-VEGFR2, baculovirus expressed recombinant constructs of the intracellular domains of human TIE2 tagged by GST; made in house
T3 sequence (P35968 786-1356 limits assumed): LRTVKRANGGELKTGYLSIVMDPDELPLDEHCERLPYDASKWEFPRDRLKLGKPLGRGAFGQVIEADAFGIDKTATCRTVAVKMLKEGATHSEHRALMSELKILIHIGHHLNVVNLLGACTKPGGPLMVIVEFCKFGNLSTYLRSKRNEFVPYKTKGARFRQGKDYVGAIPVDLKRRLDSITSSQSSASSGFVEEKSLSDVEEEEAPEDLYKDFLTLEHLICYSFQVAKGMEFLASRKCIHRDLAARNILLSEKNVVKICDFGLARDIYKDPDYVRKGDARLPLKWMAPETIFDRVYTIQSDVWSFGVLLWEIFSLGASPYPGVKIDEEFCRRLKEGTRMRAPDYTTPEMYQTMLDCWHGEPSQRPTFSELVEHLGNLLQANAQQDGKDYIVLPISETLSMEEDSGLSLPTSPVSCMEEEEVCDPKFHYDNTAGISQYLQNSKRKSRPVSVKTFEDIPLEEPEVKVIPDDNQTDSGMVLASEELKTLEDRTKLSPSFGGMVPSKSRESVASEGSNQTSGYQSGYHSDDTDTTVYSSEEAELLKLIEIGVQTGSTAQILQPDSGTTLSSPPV

[3] = test system: Human umbilical cord endothelial cells (HUVEC); test: VEGF-driven cellular proliferation assay: BrdU incorporation assay (VEGF-C); format: cell-based; design: key to VEGF-C: + = pIC50 of 5.0–6.0; ++ = pIC50 of 6.0–7.0; +++ = pIC50 of > 7.0; − = a negative or inconclusive result; conditions: for IC50: Homo sapiens
Description: VFGF-driven Cellular Proliferation Assay: BrdU Incorporation Assay (VEGF-C)
Human umbilical cord endothelial cells (HUVEC, Clonetics, CC2519) were passaged in Type I collagen-coated 100-mm petridishes in EGM-MV medium (Clonetics, CC3125) at 37° C. in a humidified 5% CO2, 95% air incubator. (HUVEC passaged more than 6 times in vitro were discarded and not subjected to assaying.) The cells were harvested using trypsin/EDTA, counted using a haemocytometer and plated at 5000 cells/well in a Type I-collagen coated 96-well plate (Becton Dickinson, 354407) in M199 medium (Gibco BRL, 12340-030) containing 5% FBS (Hyclone, A 1115-L) and gentamicin (at 50 μg/ml, Gibco BRL). After incubation overnight at 37° C., the media were replaced with 100 μl of M199 serum-free medium containing compounds at various concentrations with 0.6% DMSO and gentamicin. The compounds were diluted in serum-free M199 medium from 10 mM stock solutions prepared in 100% DMSO. After a 30 min incubation at 37° C., the cells were fed with 100 μl of serum-free M199 medium containing gentamicin, 0.2% culture-grade bovine serum albumin (BSA, Sigma A1993) and 20 ng/ml of VEGF (R&D systems, 293-VE) or 0.6 ng/ml of basic FGF (R&D systems, 233-FB), and cultured at 37° C. for another 24 h. The cells were pulsed with bromodeoxyuridine (BrdU at 10 μM in serum-free M199) at 37° C. for an additional 24 h. The incorporation of BrdU into the proliferating HUVEC were analyzed using BrdU Cell Proliferation ELISA (Roche Molecular Biochemicals, 1647229) according to the manufacturer's protocols. The optical density at 450 nm was measured with a multilabel counter (ARVO SX, Wallac). The percent inhibition of cell growth was calculated relative to blank control wells. The concentration of test compound that inhibits 50% of cell growth (IC50) was interpolated using nonlinear regression (Levernberg-Marquardt) and the equation, y=Vmax (1−x/(K+x))+Y2, where “K” was equal to the IC50. The IC50, values were converted to pIC50 values, i.e., −log IC50 in Molar concentration.

T1 sequence (Q02763 762-1104): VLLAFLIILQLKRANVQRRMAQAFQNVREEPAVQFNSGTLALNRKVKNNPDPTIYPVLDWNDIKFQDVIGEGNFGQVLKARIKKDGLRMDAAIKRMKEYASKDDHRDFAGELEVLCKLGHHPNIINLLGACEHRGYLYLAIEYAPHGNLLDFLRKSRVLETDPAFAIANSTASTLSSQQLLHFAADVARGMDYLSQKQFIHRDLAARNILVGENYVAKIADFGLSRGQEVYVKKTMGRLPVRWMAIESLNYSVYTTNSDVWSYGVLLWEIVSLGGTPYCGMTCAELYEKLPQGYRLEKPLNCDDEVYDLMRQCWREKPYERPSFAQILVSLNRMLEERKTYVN

Row | SMILES | IC50 [1] | IC50 [2] | IC50 (GST-VEGFR2) | IC50 [3] | VEGF-C [3]
1 | CN(C)CC(=O)Nc1nc2cc(Oc3ccc(NC(=O)Nc4cc(C(F)(F)F)ccc4F)cc3)ccc2[nH]1 [Example 102] | < 0.1 µM | < 0.1 µM | < 0.1 µM | < 0.1 µM | 
2 | CN(C)CCOC(=O)Nc1nc2cc(Oc3ccc(NC(=O)Nc4cc(C(F)(F)F)ccc4F)cc3)ccc2[nH]1 [Example 80, 2-(Dimethylamino)ethyl N-(5-(4-((2-fluoro-5-(trifluoromethyl)phenyl)aminocarbonylamino)phenoxy)-1H-benzimidazol-2-yl)carbamate] | < 0.1 µM | < 0.1 µM | < 0.1 µM | < 0.1 µM | 
3 | COC(=O)Nc1nc2cc(Oc3ccc(NC(=O)Nc4cc(OC)ccc4OC)cc3)ccc2[nH]1 [Example 42, Methyl N-(5-(4-((2,5-dimethoxyphenyl)aminocarbonylamino)phenoxy)-1H-benzimidazol-2-yl)carbamate] | < 0.1 µM | < 0.1 µM | < 0.1 µM | 0.1 to 1 µM | 
4 | CN(C)CCCC(=O)Nc1nc2cc(Oc3ccc(NC(=O)Nc4cc(C(F)(F)F)ccc4F)cc3)ccc2[nH]1 [Example 92, N-(5-(4-((2-Fluoro-5-(trifluoromethyl)phenyl)aminocarbonylamino)phenoxy)-1H-benzimidazol-2-yl)-4-(dimethylamino)butylamide] | < 0.1 µM | < 0.1 µM | < 0.1 µM | < 0.1 µM | 
5 | COC(=O)Nc1nc2ccc(Sc3ccc(NC(=O)Nc4cccc(Br)c4)cc3)cc2[nH]1 [Example 4, Methyl N-(5-(4-((3-bromophenyl)aminocarbonylamino)phenylthio)-1H-benzimidazol-2-yl)carbamate] | < 0.1 µM | 1 to 10 µM | 0.1 to 1 µM |  | −
6 | COC(=O)Nc1nc2cc(Oc3ccc(NC(=O)Nc4cccc(Cl)c4)cc3)ccc2[nH]1 [Example 1, Methyl N-(5-(4-((3-chlorophenyl)aminocarbonylamino)phenoxy)-1H-benzimidazol-2-yl)carbamate] | < 0.1 µM | 0.1 to 1 µM | < 0.1 µM |  | −
7 | COC(=O)Nc1nc2cc(Oc3cccc(NC(=O)Nc4cccc(Cl)c4)c3)ccc2[nH]1 [Example 14, Methyl (5-(3-((3-Chlorophenyl)aminocarbonylamino)phenoxy)-1H-benzimidazol-2-yl)carbamate hydrochloride] | 0.1 to 1 µM | 0.1 to 1 µM | < 0.1 µM | 0.1 to 1 µM | 
8 | COC(=O)Nc1nc2ccc(Oc3ccc(NC(=O)Nc4cc(Cl)ccc4Cl)cc3)nc2[nH]1.Cl [Example 74, Methyl N-(5-(4-((2,5-dichlorophenyl)aminocarbonylamino)phenoxy)-3,4-diaza-1H-indole-2-yl)carbamate dihydrochloride] | < 0.1 µM | < 0.1 µM | < 0.1 µM |  | −
9 | COC(=O)Nc1nc2cc(Oc3ccc(NC(=O)Nc4cc(C)ccc4F)cc3)ccc2[nH]1.Cl [Example 55, Methyl N-(5-(4-((2-fluoro-5-methylphenyl)aminocarbonylamino)phenoxy)-1H-benzimidazol-2-yl)carbamate hydrochloride] | < 0.1 µM | < 0.1 µM | < 0.1 µM |  | −
10 | O=C(Nc1ccc(Oc2ccc3[nH]c(NC(=O)C4CCCO4)nc3c2)cc1)Nc1cc(C(F)(F)F)ccc1F (stereo not drawn) [Example 94] | < 0.1 µM | < 0.1 µM | < 0.1 µM | 1 to 10 µM | 
11 | COC(=O)Nc1nc2ccc(Oc3ccc(NC(=O)Nc4cc(C(F)(F)F)ccc4F)cc3)cc2s1 [Example 64, Methyl N-(6-(4-((6-fluoro-3-(trifluoromethyl)phenyl)aminocarbonylamino)phenoxy)-benzthiazol-2-yl)carbamate] | < 0.1 µM | < 0.1 µM | < 0.1 µM | < 0.1 µM | 
12 | COC(=O)Nc1nc2ccc(Sc3ccc(NC(=O)Nc4cc(OC)cc(OC)c4)cc3)cc2[nH]1 [Example 5, Methyl N-(5-(4-((3,5-dimethoxyphenyl)aminocarbonylamino)phenylthio)-1H-benzimidazol-2-yl)carbamate] | 0.1 to 1 µM | < 0.1 µM | 1 to 10 µM |  | −
13 | COC(=O)Nc1nc2cc(Oc3ccc(NC(=O)Nc4cccc(C(F)(F)F)c4)cn3)ccc2[nH]1 [Example 38] | < 0.1 µM | < 0.1 µM | < 0.1 µM |  | −
14 | COC(=O)Nc1nc2cc(Oc3ccc(NC(=O)Nc4cc(Cl)ccc4Cl)cc3)ccc2[nH]1 [Example 45, Methyl N-(5-(4-((2,5-dichlorophenyl)aminocarbonylamino)phenoxy)-1H-benzimidazol-2-yl)carbamate] | < 0.1 µM | < 0.1 µM | < 0.1 µM |  | −
15 | COC(=O)Nc1nc2cc(S(=O)(=O)c3ccc(NC(=O)Nc4cc(C(F)(F)F)ccc4F)cc3)ccc2[nH]1 [Example 12, Methyl N-(5-(4-((2-fluoro-5-(trifluoromethyl)phenyl)aminocarbonylamino)phenylsulfonyl)-1H-benzimidazol-2-yl)carbamate] | 0.1 to 1 µM | < 0.1 µM | 1 to 10 µM |  | −
16 | CC(C)(C)OC(=O)NCC(=O)Nc1nc2cc(Oc3ccc(NC(=O)Nc4cc(C(F)(F)F)ccc4F)cc3)ccc2[nH]1 [Example 35, N-(5-(4-((2-Fluoro-5-(trifluoromethyl)phenyl)aminocarbonylamino)phenoxy)-1H-benzimidazol-2-yl)-2-(N-(t-butoxycarbony)amino)acetamide] | < 0.1 µM | 0.1 to 1 µM | < 0.1 µM | 1 to 10 µM | 
17 | COC(=O)Nc1nc2cc(Oc3cccc(NC(=O)Nc4cc(C(F)(F)F)ccc4F)c3)ccc2[nH]1 [Example 15, Methyl N-(5-(3-((2-Fluoro-5-(trifluoromethyl)phenyl)aminocarbonylamino)phenoxy)-1H-benzimidazol-2-yl)carbamate] | < 0.1 µM | < 0.1 µM | < 0.1 µM | 0.1 to 1 µM | 
18 | COC(=O)Nc1nc2ccc(Oc3ccc(NC(=O)Nc4cc(C(F)(F)F)ccc4F)cc3)cc2n1CCN1CCOCC1 [Example 71, Methyl N-(6-(4-((2-fluoro-5-(trifluoromethyl)phenyl)aminocarbonylamino)phenoxy)-1-(2-(4-morpholino)ethyl)-1H-benzimidazol-2-yl)carbamate] | < 0.1 µM | 0.1 to 1 µM | < 0.1 µM | 1 to 10 µM | 
